The results in this text go back to US20250120928A1 (University of Maryland, Baltimore, priority 2021, published 2025).

The subject of series [1] is unstimulated BMMØs. Put plainly: MTS assay. The series is classed as cell-based, C57BL/6J mice. Conditions: Mus musculus; unstimulated BMMØs treated for 48 hours; read-out: IC50 (MTS assay, cellular proliferation). As for the experimental part:
Cells were then washed with PBS and 50 μL of MTS solution was added to each well and incubated for 1 hour. The optical density (O.D.) of the solution was measured using a SpectraMax iD3 microplate reader at 570 nm. The percentage of cell proliferation was measured as the ratio of O.D. at 570 nm to no treatment control. IC50 values were calculated using GraphPad Prism 9 program based on a sigmoidal dose-response equation.

For series [2], the system named is B cells (B220+) isolated from splenocytes. Briefly: Splenocyte apoptosis and cell death by AV/PI flow cytometry, B cells. The series is classed as cell-based. As for the experimental part: Splenocytes were isolated from spleens as previously described. Briefly, 5-12-week C57BL/6J female mice were euthanized and the spleen was isolated. The spleen was processed into single-cell suspensions using a 40 μm cell strainer and flushed with cold PBS supplemented with 1% FBS and 0.4% 0.5 M EDTA (Quality Biological, Gaithersburg, MD). Erythrocytes were lysed with ACK lysis buffer (Quality Biological, Gaithersburg, MD). […] Subsequently, splenocytes were stimulated with 100 ng/mL LPS for 24 hours. Splenocytes were then washed with cold PBS supplemented with 1% FBS and 0.4% 0.5 M EDTA and FcR blocked, as previously mentioned. Splenocytes were then stained with purified anti-mouse PE/Cyanine7 CD45R/B220 antibody (#103222) (BioLegend, San Diego, CA) for the B cell population. SAHA and SAHA-OH apoptosis and cell death were then assessed using the FITC-AV Apoptosis Detection Kit with PI via flow cytometry, as previously mentioned. Flow cytometry data were collected using a Cytex Aurora flow cytometer. Flow plots and data processing was done using FCS Express 7 Flow Cytometry De Novo Software (De Novo, Glendale, CA).

Series [3] has as its target T1, HDAC6 (Homo sapiens, UniProt Q9UBN7).
T1 construct: purchased Reaction Biology Corporation
T1 sequence (Q9UBN7 1-1215): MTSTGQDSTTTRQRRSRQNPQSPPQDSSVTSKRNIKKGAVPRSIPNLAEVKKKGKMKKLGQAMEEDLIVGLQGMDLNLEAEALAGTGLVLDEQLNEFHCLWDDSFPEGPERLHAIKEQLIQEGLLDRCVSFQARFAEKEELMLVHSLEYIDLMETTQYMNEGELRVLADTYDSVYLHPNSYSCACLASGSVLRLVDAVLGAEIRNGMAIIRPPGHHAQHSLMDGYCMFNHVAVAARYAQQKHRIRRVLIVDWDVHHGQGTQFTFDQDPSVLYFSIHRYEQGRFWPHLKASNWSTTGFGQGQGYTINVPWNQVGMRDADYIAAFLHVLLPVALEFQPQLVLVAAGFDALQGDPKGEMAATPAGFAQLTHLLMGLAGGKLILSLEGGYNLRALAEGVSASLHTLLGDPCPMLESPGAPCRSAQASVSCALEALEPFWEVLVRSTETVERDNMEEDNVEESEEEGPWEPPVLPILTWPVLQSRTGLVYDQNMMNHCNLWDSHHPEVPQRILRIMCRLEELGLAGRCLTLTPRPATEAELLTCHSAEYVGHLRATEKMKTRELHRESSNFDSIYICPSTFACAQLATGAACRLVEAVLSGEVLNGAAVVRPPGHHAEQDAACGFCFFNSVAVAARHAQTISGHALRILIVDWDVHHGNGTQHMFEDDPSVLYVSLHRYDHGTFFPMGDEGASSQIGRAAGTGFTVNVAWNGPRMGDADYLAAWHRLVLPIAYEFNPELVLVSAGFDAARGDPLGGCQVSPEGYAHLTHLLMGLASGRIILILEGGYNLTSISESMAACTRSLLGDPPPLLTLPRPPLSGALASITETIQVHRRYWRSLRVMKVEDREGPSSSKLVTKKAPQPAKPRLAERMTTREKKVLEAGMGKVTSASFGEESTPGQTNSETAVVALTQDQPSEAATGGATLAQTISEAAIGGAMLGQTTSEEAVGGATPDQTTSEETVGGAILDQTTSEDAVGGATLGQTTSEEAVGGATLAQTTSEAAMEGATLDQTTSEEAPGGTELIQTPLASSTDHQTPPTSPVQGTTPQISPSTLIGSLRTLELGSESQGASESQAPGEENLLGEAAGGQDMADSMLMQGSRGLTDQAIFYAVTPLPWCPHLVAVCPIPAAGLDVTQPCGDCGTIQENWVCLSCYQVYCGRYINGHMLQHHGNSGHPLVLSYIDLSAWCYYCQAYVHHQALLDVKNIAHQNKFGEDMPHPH
Briefly: Fluorescence-based HDAC activity assay with fluorogenic peptide substrate (Reaction Biology). The series is classed as biochemical. Here is the method: (§1) Fluorescence-based activity assays using fluorogenic peptides as substrates for HDAC1, 2, 3, 6, and 8 were performed by Reaction Biology Corporation (reactionbiology.com). […] The substrate for HDACs 1, 2, 3, and 6 was a fluorogenic peptide from p53 residues 379-382 (RHKK(Ac)AMC) (SEQ ID NO: 1). The substrate for HDAC8 was a fluorogenic peptide from p53 residues 379-382 (RHK(Ac)K(Ac)AMC) (SEQ ID NO: 2). SAHA-OH IC50 values were calculated using GraphPad Prism 4 program based on a sigmoidal dose-response equation. The blank (DMSO) value was entered as 1.00×10^−12 of concentration for curve fitting.

For series [4], the system named is T2, HDAC1, 2, 3.
T2 construct: other: range over the three isoforms; other: 237-359 nM compared to 30000 nM
Described as above. It counts as biochemical. As for the experimental part: as §1

As to `O=C(CCCCCCC(=O)Nc1ccc(CO)cc1)NO` [SAHA-OH, N^1-hydroxy-N^8-(4-(hydroxymethyl)phenyl)octanediamide], the IC50 in series [1] was 1300 nM; in series [3] (read-out: IC50 against HDAC6), 23 nM; in series [4] (range over the three isoforms, read-out: IC50 against HDAC1, 2, 3), 237 to 359 nM. Further, the “toxicity profile for the B cell population” value in series [2] (0-30 μM) was “concentration-dependent toxicity profiles”. The “decrease in cell death of the B cell population versus SAHA” value in series [2] (10 μM) worked out at 3 fold. Also, the “enhancement in viability of the B cell population versus SAHA” value in series [2] (10 μM) came out at 5 fold. For the same compound, the “less selective HDAC6 inhibition compared to Tubastatin A” value in series [3] (23 nM compared to […] nM) came to 1.5 fold. Moreover, in series [4] (237-359 nM compared to 30000 nM), the “more selective for HDAC1, 2, 3 compared to Tubastatin A” value is on record as “approximately 100 fold”.
